“Also recorded” adds a separate entry of the source.
Columns and labels:
[1] = comparison value; cited from earlier work
CaCo-2 cells = assay: Cellular uptake of magnesium in CaCo-2 cells; type: cell-based, human; settings: incubation time 1 hr, samples contain ~8% magnesium citrate

Row | Compound | water solubility of free ligand [1] | cellular uptake of magnesium (CaCo-2 cells) | solubility (Solubility in water; Example 3 product) | solubility relative to that of the free ligand (Solubility in water; complex vs. its ligand (maltol or ethylmaltol), water) | solubility (Solubility in water; triplicate independent runs)
1 | Cc1occc(=O)c1O [maltol, 3-HYDROXY-2-METHYL-4H-PYRAN-4-ONE] | 1.2 g/100 mL | – | – | – | –
2 | magnesium maltol [Complex 1] | – | substantial uptake of magnesium; also recorded: confirmed cellular entry | – | – | –
3 | CCc1occc(=O)c1O [ethylmaltol] | 5.84 g/100 mL | – | – | – | –
4 | magnesium ethylmaltol [Complex 2] | – | substantial uptake of magnesium; also recorded: slightly greater uptake than Complex 1; also recorded: confirmed cellular entry | 26.8 g/100 mL H2O | approximately 4.9 × | 28.4±0.86 g per 100 mL of H2O
